Measurements: paper PMC6713088, “Synthesis and biological evaluation of novel 3-(quinolin-4-ylamino)benzenesulfonamides as carbonic anhydrase isoforms I and II inhibitors” (Journal of Enzyme Inhibition and Medicinal Chemistry, 2019)
Where two headings read alike, the source gives them in different places.

Columns and labels:
[1] = stopped-flow CO2 hydration assay; assay type: biochemical, Homo sapiens; conditions: read-out: KI (nM) ^* / hCA I
Excerpt: (§1) stopped-flow CO2 hydration assay on hCA II

[2] = target: T1, hCA I (Homo sapiens, UniProt P00915); assay: stopped-flow CO2 hydration assay; assay type: biochemical
T1 construct: gene CA1; cytosolic isoform
T1 sequence (P00915 2-261): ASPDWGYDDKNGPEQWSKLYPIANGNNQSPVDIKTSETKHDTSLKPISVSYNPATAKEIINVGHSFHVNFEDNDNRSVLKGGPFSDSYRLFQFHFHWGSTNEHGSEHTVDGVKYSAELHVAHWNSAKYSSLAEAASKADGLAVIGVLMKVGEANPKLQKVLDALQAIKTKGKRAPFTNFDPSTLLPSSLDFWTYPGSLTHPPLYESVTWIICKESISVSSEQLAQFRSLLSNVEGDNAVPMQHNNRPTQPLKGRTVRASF
Excerpt: stopped-flow CO2 hydration assay on hCA I

[3] = target: T2, hCA II (Homo sapiens, UniProt P00918); assay: stopped-flow CO2 hydration assay; assay type: biochemical
T2 construct: gene CA2; cytosolic isoform
Excerpt: as §1

| SMILES | Ki [1] [nM] | Ki [2] [nM] | Ki [3] [nM] | Ki ([3]; CO2 […], […] Hepes pH […] Na2SO4, […] min preincubation at room temperature) [nM] |
| --- | --- | --- | --- | --- |
| CCOC(=O)c1cnc2cc(Cl)cc(Cl)c2c1Nc1cccc(S(N)(=O)=O)c1 [6f, Ethyl 5,7-dichloro-4-((3-sulphamoylphenyl)amino)quinoline-3-carboxylate] | > 10000 | > 10000 | – | – |
| CCOC(=O)c1cnc2ccccc2c1Nc1cccc(S(N)(=O)=O)c1 [6a, Ethyl 4-((3-sulphamoylphenyl)amino)quinoline-3-carboxylate] | – | 4230 | 223 | – |
| CCOC(=O)c1cnc2ccc(Br)cc2c1Nc1cccc(S(N)(=O)=O)c1 [6d, Ethyl 6-bromo-4-((3-sulphamoylphenyl)amino)quinoline-3-carboxylate] | – | 9090 | 3590 | – |
| CCOC(=O)c1cnc2cc(Cl)c(F)cc2c1Nc1cccc(S(N)(=O)=O)c1 [6e, Ethyl 7-chloro-6-fluoro-4-((3-sulphamoylphenyl)amino)quinoline-3-carboxylate] | – | 7600 | – | 83.3 |
| CCOC(=O)c1cnc2ccc(C)cc2c1Nc1cccc(S(N)(=O)=O)c1 [6b, Ethyl 6-methyl-4-((3-sulphamoylphenyl)amino)quinoline-3-carboxylate] | – | 6640 | 782 | – |
| CCOC(=O)c1cnc2ccc(OC)cc2c1Nc1cccc(S(N)(=O)=O)c1 [6c, Ethyl 6-methoxy-4-((3-sulphamoylphenyl)amino)quinoline-3-carboxylate] | – | 966 | 175 | – |
| CCOC(=O)c1cnc2cc(Cl)c(F)cc2c1Nc1cccc(S(=O)(=O)NC)c1 [compound 11, Ethyl 7-chloro-6-fluoro-4-((3-(N-methylsulphamoyl)phenyl)amino)quinoline-3-carboxylate] | > 10000 | > 10000 | – | – |
